The data set concerns CCRIS mutagenicity, Ames/micronucleus/aberration tests. Description: CCRIS mutagenicity studies.
Where [1] appears, read: Test System: AMES SALMONELLA TYPHIMURIUM, Strain/Indicator: TA98, Metabolic Activation: NONE, Method: STANDARD PLATE.
Where [2] appears, read: Test System: AMES SALMONELLA TYPHIMURIUM, Strain/Indicator: TA98, Metabolic Activation: RAT, LIVER, S-9, AROCLOR 1254, Method: STANDARD PLATE.
[3] abbreviates: Test System: AMES SALMONELLA TYPHIMURIUM, Strain/Indicator: TA100, Metabolic Activation: NONE, Method: STANDARD PLATE.
[4] abbreviates: Test System: AMES SALMONELLA TYPHIMURIUM, Strain/Indicator: TA100, Metabolic Activation: RAT, LIVER, S-9, AROCLOR 1254, Method: STANDARD PLATE.
[5] abbreviates: Test System: AMES SALMONELLA TYPHIMURIUM, Strain/Indicator: TA1537, Metabolic Activation: NONE, Method: PREINCUBATION
[6] abbreviates: Test System: AMES SALMONELLA TYPHIMURIUM, Strain/Indicator: TA98, Metabolic Activation: NONE, Method: PREINCUBATION
Setting [7] is: Test System: AMES SALMONELLA TYPHIMURIUM, Strain/Indicator: TA100, Metabolic Activation: NONE, Method: PREINCUBATION
Where [8] appears, read: Test System: AMES SALMONELLA TYPHIMURIUM, Strain/Indicator: TA100, Metabolic Activation: RAT, LIVER, S-9, AROCLOR 1254, Method: PREINCUBATION

Among the data in PubChem BioAssay AID1259407 (Chemical Carcinogenesis Research Information System (CCRIS), 2018) are mutagenic call values, retold here.

The structures appear in SMILES notation. The source made the active and inactive calls. How the calls were made is not given here.

Consider `OC/C=C/c1ccccc1`, for which the mutagenic call is “inactive; negative” (Test System: AMES SALMONELLA TYPHIMURIUM, Strain/Indicator: TA98, Metabolic Activation: HAMSTER, LIVER, S-9, AROCLOR 1254 (2.5-20%), Method: PREINCUBATION); “inactive; negative” (Test System: AMES SALMONELLA TYPHIMURIUM, Strain/Indicator: TA98, Metabolic Activation: HAMSTER, LIVER, S-9, AROCLOR 1254, Method: STANDARD PLATE); “inactive; negative” under setting [1]; “inactive; negative” under setting [2]; “inactive; negative” (Test System: AMES SALMONELLA TYPHIMURIUM, Strain/Indicator: TA100, Metabolic Activation: HAMSTER, LIVER, S-9, AROCLOR 1254 (2.5-20%), Method: PREINCUBATION); “inactive; negative” (Test System: AMES SALMONELLA TYPHIMURIUM, Strain/Indicator: TA100, Metabolic Activation: HAMSTER, LIVER, S-9, AROCLOR 1254, Method: STANDARD PLATE). Besides, the mutagenic call is, setting by setting: under setting [3], “inactive; negative”; under setting [4], “inactive; negative”; (Test System: AMES SALMONELLA TYPHIMURIUM, Strain/Indicator: TA102, Metabolic Activation: HAMSTER, LIVER, S-9, AROCLOR 1254, Method: PREINCUBATION) “inactive; negative”; (Test System: AMES SALMONELLA TYPHIMURIUM, Strain/Indicator: TA102, Metabolic Activation: NONE, Method: PREINCUBATION) “inactive; negative”; (Test System: AMES SALMONELLA TYPHIMURIUM, Strain/Indicator: TA102, Metabolic Activation: RAT, LIVER, S-9, AROCLOR 1254, Method: PREINCUBATION) “inactive; negative”; (Test System: AMES SALMONELLA TYPHIMURIUM, Strain/Indicator: TA1535, Metabolic Activation: HAMSTER, LIVER, S-9, AROCLOR 1254, Method: STANDARD PLATE) “inactive; negative”. Moreover, the mutagenic call runs as follows: (Test System: AMES SALMONELLA TYPHIMURIUM, Strain/Indicator: TA1535, Metabolic Activation: NONE, Method: STANDARD PLATE) “inactive; negative”; (Test System: AMES SALMONELLA TYPHIMURIUM, Strain/Indicator: TA1535, Metabolic Activation: RAT, LIVER, S-9, AROCLOR 1254, Method: STANDARD PLATE) “inactive; negative”; (Test System: AMES SALMONELLA TYPHIMURIUM, Strain/Indicator: TA1537, Metabolic Activation: HAMSTER, LIVER, S-9, AROCLOR 1254, Method: STANDARD PLATE) “inactive; negative”; under setting [5], “inactive; negative”; (Test System: AMES SALMONELLA TYPHIMURIUM, Strain/Indicator: TA1537, Metabolic Activation: NONE, Method: STANDARD PLATE) “inactive; negative”; (Test System: AMES SALMONELLA TYPHIMURIUM, Strain/Indicator: TA1537, Metabolic Activation: RAT, LIVER, S-9, AROCLOR 1254, Method: STANDARD PLATE) “inactive; negative”. In addition, the mutagenic call by setting is: (Test System: AMES SALMONELLA TYPHIMURIUM, Strain/Indicator: TA1538, Metabolic Activation: HAMSTER, LIVER, S-9, AROCLOR 1254, Method: STANDARD PLATE) “inactive; negative”; (Test System: AMES SALMONELLA TYPHIMURIUM, Strain/Indicator: TA1538, Metabolic Activation: NONE, Method: STANDARD PLATE) “inactive; negative”; (Test System: AMES SALMONELLA TYPHIMURIUM, Strain/Indicator: TA1538, Metabolic Activation: RAT, LIVER, S-9, AROCLOR 1254, Method: STANDARD PLATE) “inactive; negative”; (Test System: MOUSE LYMPHOMA, Strain/Indicator: L5178Y (TK+/TK-), Metabolic Activation: NONE, Method: SUSPENSION/PLATE) “active; positive. reevaluation of results: inconclusive”; (Test System: MOUSE LYMPHOMA, Strain/Indicator: L5178Y (TK+/TK-), Metabolic Activation: RAT, LIVER, S-9, AROCLOR 1254, Method: SUSPENSION/PLATE) “active; positive. reevaluation of results: positive”; (Test System: Mouse lymphoma, Strain/Indicator: L5178Y (tk+/tk-), Metabolic Activation: None, Method: Suspension/plate) “inactive; negative”. Also, the mutagenic call (Test System: Mouse lymphoma, Strain/Indicator: L5178Y (tk+/tk-), Metabolic Activation: Rat, Liver, S-9, Aroclor 1254, Method: Suspension/plate) is “inactive; negative”.
In the case of `CC(=O)OC1CC(C)OC(C)O1` (configuration not stated), the mutagenic call is “inactive; negative” (Test System: AMES SALMONELLA TYPHIMURIUM, Strain/Indicator: TA98, Metabolic Activation: HAMSTER, LIVER, S-9, AROCLOR 1254, Method: PREINCUBATION); “inactive; negative” under setting [6]; “inactive; negative” (Test System: AMES SALMONELLA TYPHIMURIUM, Strain/Indicator: TA98, Metabolic Activation: RAT, LIVER, S-9, AROCLOR 1254, Method: PREINCUBATION); “active; positive” (Test System: AMES SALMONELLA TYPHIMURIUM, Strain/Indicator: TA100, Metabolic Activation: HAMSTER, LIVER, S-9, AROCLOR 1254, Method: PREINCUBATION); “inactive; negative” under setting [7]; “active; positive” under setting [8]. Further, the mutagenic call reads like this: (Test System: AMES SALMONELLA TYPHIMURIUM, Strain/Indicator: TA1535, Metabolic Activation: HAMSTER, LIVER, S-9, AROCLOR 1254, Method: PREINCUBATION) “inactive; negative”; (Test System: AMES SALMONELLA TYPHIMURIUM, Strain/Indicator: TA1535, Metabolic Activation: NONE, Method: PREINCUBATION) “inactive; negative”; (Test System: AMES SALMONELLA TYPHIMURIUM, Strain/Indicator: TA1535, Metabolic Activation: RAT, LIVER, S-9, AROCLOR 1254, Method: PREINCUBATION) “inactive; negative”; (Test System: AMES SALMONELLA TYPHIMURIUM, Strain/Indicator: TA1537, Metabolic Activation: HAMSTER, LIVER, S-9, AROCLOR 1254, Method: PREINCUBATION) “inactive; negative”; under setting [5], “inactive; negative”; (Test System: AMES SALMONELLA TYPHIMURIUM, Strain/Indicator: TA1537, Metabolic Activation: RAT, LIVER, S-9, AROCLOR 1254, Method: PREINCUBATION) “inactive; negative”.
Turning to `CCCCN(C[C@H](CO)Cc1ccccc1)N=O`, the mutagenic call is “inactive; negative” under setting [7] and “active; positive” (Test System: AMES SALMONELLA TYPHIMURIUM, Strain/Indicator: TA100, Metabolic Activation: RAT, LIVER, S-9, PCB, Method: PREINCUBATION).
In the case of `Cl/C=C(\Cl)SCc1ccccc1`, the mutagenic call reads like this: under setting [7], “inactive; negative”; under setting [8], “active; positive”.
For the molecule `CC(C)=C[C@@H]1[C@@H](C(=O)OCc2coc(Cc3ccccc3)c2)C1(C)C`, the mutagenic call reads like this: under setting [1], “inactive; negative”; under setting [2], “inactive; negative”; under setting [3], “inactive; negative”; under setting [4], “inactive; negative”; (Test System: CHINESE HAMSTER V-79, Strain/Indicator: V-79/6-THIOGUANINE, Metabolic Activation: NONE, Method: STANDARD PLATE) “inactive; negative”; (Test System: CHINESE HAMSTER V-79, Strain/Indicator: V-79/6-THIOGUANINE, Metabolic Activation: RAT HEPATOCYTES, Method: STANDARD PLATE) “inactive; negative”. Further, the mutagenic call by setting is: (Test System: CHINESE HAMSTER V-79, Strain/Indicator: V-79/OUABAIN, Metabolic Activation: NONE, Method: STANDARD PLATE) “inactive; negative”; (Test System: CHINESE HAMSTER V-79, Strain/Indicator: V-79/OUABAIN, Metabolic Activation: RAT HEPATOCYTES, Method: STANDARD PLATE) “inactive; negative”.
For `O=C(O)[C@H]1OC(Oc2c3ccccc3c3ccc4cccc5ccc2c3c54)[C@H](O)[C@@H](O)[C@@H]1O` (some centres not stated), the mutagenic call was “inactive; negative” under setting [6] and “inactive; negative” (Test System: AMES SALMONELLA TYPHIMURIUM, Strain/Indicator: TA98, Metabolic Activation: RAT, LUNG, S-9, Method: PREINCUBATION).
As for `O=c1[nH]sc2cc([N+](=O)[O-])ccc12`, under setting [3], the mutagenic call is “active; positive”.
